In publication PMC10525795, “Pharmacokinetics of Four Tyrosine Kinase Inhibitors in Adult and Paediatric Chronic Myeloid Leukaemia Patients” (Biomedicines, 2023):
Read-outs that look alike come from different tables or passages of the source. Values belong to the compound of their own block, whether it stands above or below them.

Key:
[1] = Cerebrospinal fluid drug concentration at end of dosing interval (Ctrough), HPLC–UV, patients with CML; type: in vivo, human; settings: for Cerebrospinal fluid concentrations, median (IQR): all sampled patients with CML on the drug
[2] = cited from earlier work
[3] = cited from earlier work; remark: listed apart in the source
p-glycoprotein (PGP) = system: p-glycoprotein (PGP); parameters: method as in PMID 28256516; settings: cited from earlier work
[4] = system: breast-cancer resistance protein (BRCP); parameters: method as in PMID 28256516; settings: cited from earlier work
[5] = cited from earlier work; remark: listed apart in the source
[6] = Plasma drug concentration at end of dosing interval (Ctrough), HPLC–UV, patients with CML; settings: for Plasma concentrations, median (IQR): all sampled patients with CML on the drug
BCR–-ABL kinase = settings: higher than imatinib; cited from earlier work

Compound: Cc1nc(Nc2ncc(C(=O)Nc3c(C)cccc3Cl)s2)cc(N2CCN(CCO)CC2)n1 [Dasatinib]
- Cerebrospinal fluid concentrations, median (IQR) [1]: 0.11 (0.06–0.32) µg/mL
- Cerebrospinal fluid concentrations, median (IQR) ([1]; listed as dasatinib): 0.11 µg/mL
- Median CSF level, paediatrics ([1]; paediatric patients, N = 36): 0.11 µg/mL
- Average half-life [2]: 1.3 to 5 h
- Distribution volume [2]: > 3 L/kg
- Time of concentration peak after administration ([2]; oral): 0.5 to 3 h
- Patients with drug-related pulmonary hypertension ([3]; adults with CML who are imatinib-resistant/intolerant): 2%
- Patients with drug-related pulmonary hypertension ([3]; newly diagnosed adults with CML): 5%
- Substrate of PGP (p-glycoprotein (PGP)): substrate
- Substrate of BCRP [4]: substrate
- Blood–brain barrier crossing [5]: ability to cross the blood–brain barrier
- Median plasma concentration, adults ([6]; adult patients, N = 3): 0.4 µg/mL
- Plasma concentrations, median (IQR) [6]: 0.06 (0.03–0.33) µg/mL
- Plasma concentrations, median (IQR) ([6]; listed as dasatinib): 0.06 µg/mL
- Median plasma concentration, paediatrics ([6]; paediatric patients, N = 36): 0.05 µg/mL

Compound: Cc1ccc(NC(=O)c2ccc(CN3CCN(C)CC3)cc2)cc1Nc1nccc(-c2cccnc2)n1 [Imatinib]
- Time of plasma peak ([2]; oral): 2 to 4 h
- Blood–brain barrier crossing [5]: ability to cross the blood–brain barrier

- Plasma concentrations, median (IQR) [6]: 0.19 (0.16–0.22) µg/mL
- Mean plasma concentration ([6]; two adult male patients): 190 ng/mL
Compound: Cc1cn(-c2cc(NC(=O)c3ccc(C)c(Nc4nccc(-c5cccnc5)n4)c3)cc(C(F)(F)F)c2)cn1 [Nilotinib]
- Average half-life [2]: approximately 15 h
- Bioavailability ([2]; oral): approximately 30%
- Time of concentration peak after administration ([2]; oral): 3 h
- Strength of inhibition of tyrosine kinase protein's activity versus imatinib (BCR–-ABL kinase): 20–50 times

- Cerebrospinal fluid concentrations, median (IQR) [1]: 0.65 (0.18–1.65) µg/mL
- Cerebrospinal fluid concentrations, median (IQR) ([1]; listed as ponatinib): 0.65 µg/mL
Compound: Cc1ccc(C(=O)Nc2ccc(CN3CCN(C)CC3)c(C(F)(F)F)c2)cc1C#Cc1cnc2cccnn12 [Ponatinib]
- Half-life [2]: approximately 24 h
- Time of peak concentration after administration ([2]; oral): ≤ 6 h
